Measurements: ChEMBL document CHEMBL4619760, “Anti-inflammatory Efficacy of Combined Natural Alkaloid Berberine and S1PR Modulator Fingolimod at Low Doses in Ulcerative Colitis Preclinical Models” (J Nat Prod, 2020)
The source made the active and inactive calls. The rule behind the calls is not given here.

Tests used:
Mus musculus [1] = experiment: Anti-colitis activity against DSS-induced C57BL/6 mouse model of subchronic relapsing colitis assessed as reduction in colon swelling at 0.3 mg/kg, po administered once daily for 14 days starting from day 5 post DSS-challenge; type: functional, organism-based
Mus musculus [2] = experiment: Anti-colitis activity against DSS-induced C57BL/6 mouse model of subchronic relapsing colitis assessed as reduction in colon swelling at 0.15 mg/kg, po administered once daily for 14 days starting from day 5 post DSS-challenge cotreated with 20 mg/kg berberine and measured after day 12 to day 18; type: functional, organism-based
Mus musculus [3] = experiment: Anti-colitis activity against DSS-induced C57BL/6 mouse model of chronic relapsing colitis assessed as reduction in stool bleeding at 0.3 mg/kg, po administered once daily for 30 days starting from day 13 post DSS-challenge measured on day 38; type: functional, organism-based
Mus musculus [4] = experiment: Anti-colitis activity against DSS-induced C57BL/6 mouse model of chronic relapsing colitis assessed as reduction in disease activity index at 0.15 mg/kg, po administered once daily for 30 days starting from day 13 post DSS-challenge cotreated with 20 mg/kg berberine and measured on day 24; type: functional, organism-based
Mus musculus [5] = experiment: Anti-colitis activity against DSS-induced C57BL/6 mouse model of chronic relapsing colitis assessed as reduction in stool consistency score at 0.15 mg/kg, po administered once daily for 30 days starting from day 13 post DSS-challenge cotreated with 20 mg/kg berberine measured on day 43; type: functional, organism-based
Mus musculus [6] = experiment: Anti-colitis activity against DSS-induced C57BL/6 mouse model of chronic relapsing colitis assessed as reduction in disease activity index at 0.15 mg/kg, po administered once daily for 30 days starting from day 13 post DSS-challenge cotreated with 20 mg/kg berberine and measured on day 43; type: functional, organism-based
Mus musculus [7] = experiment: Anti-colitis activity against DSS-induced C57BL/6 mouse model of chronic relapsing colitis assessed as reversal of DSS-induced colon shortening at 0.3 mg/kg, po administered once daily for 30 days starting from day 13 post DSS-challenge; type: functional, organism-based
Mus musculus [8] = experiment: Anti-colitis activity against DSS-induced C57BL/6 mouse model of subchronic relapsing colitis assessed as reversal of DSS-induced colon shortening at 0.15 mg/kg, po administered once daily for 30 days starting from day 13 post DSS-challenge cotreated with 20 mg/kg berberine; type: functional, organism-based
Mus musculus [9] = experiment: Anti-colitis activity against DSS-induced C57BL/6 mouse model of subchronic relapsing colitis assessed as reduction in DSS-induced colon swelling at 0.3 mg/kg, po administered once daily for 30 days starting from day 13 post DSS-challenge; type: functional, organism-based
Mus musculus [10] = experiment: Anti-colitis activity against DSS-induced C57BL/6 mouse model of chronic relapsing colitis assessed as reduction in DSS-induced spleen swelling at 0.3 mg/kg, po administered once daily for 30 days starting from day 13 post DSS-challenge; type: functional, organism-based
Mus musculus [11] = experiment: Anti-colitis activity against DSS-induced C57BL/6 mouse model of chronic relapsing colitis assessed as reduction in DSS-induced spleen swelling at 0.15 mg/kg, po administered once daily for 30 days starting from day 13 post DSS-challenge cotreated with 20 mg/kg berberine; type: functional, organism-based
Mus musculus [12] = experiment: Anti-colitis activity against DSS-induced C57BL/6 mouse model of chronic relapsing colitis assessed as reduction in DSS-induced loss of colon crypt and columnar epithelium at 0.3 mg/kg, po administered once daily for 30 days starting from day 13 post DSS-challenge; type: functional, organism-based
Mus musculus [13] = experiment: (§1) Anti-colitis activity against DSS-induced C57BL/6 mouse model of chronic relapsing colitis assessed as reduction in DSS-induced inflammatory cell infiltration in colon at 0.15 mg/kg, po administered once daily for 30 days starting from day 13 post DSS-challenge cotreated with 20 mg/kg berberine; type: functional, organism-based
Mus musculus [14] = experiment: as §1, with “mononuclear” for “inflammatory”, “spleen” for “colon”, “berberine by hematoxylin and eosin staining based light microscopic analysis” for “berberine”; type: functional, organism-based
[15] = (§2) Toxicity in DSS-induced C57BL/6 mouse model of chronic relapsing colitis assessed as induction of abnormalities in heart at 0.3 mg/kg, po administered once daily for 30 days starting from day 13 post DSS-challenge by hematoxylin and eosin staining based light microscopic analysis; type: organism-based; conditions: in vivo, 720 h
[16] = (§3) Toxicity in DSS-induced C57BL/6 mouse model of chronic relapsing colitis assessed as induction of abnormalities in kidney at 0.3 mg/kg, po administered once daily for 30 days starting from day 13 post DSS-challenge by hematoxylin and eosin staining based light microscopic analysis; type: organism-based; conditions: in vivo, 720 h
[17] = Toxicity in DSS-induced C57BL/6 mouse model of chronic relapsing colitis assessed as induction of abnormalities in brain at 0.3 mg/kg, po administered once daily for 30 days starting from day 13 post DSS-challenge by hematoxylin and eosin staining based light microscopic analysis; type: organism-based; conditions: in vivo, 720 h
[18] = as §2, with “0.15” for “0.3”, “DSS-challenge cotreated with 20 mg/kg berberine” for “DSS-challenge”; type: organism-based; conditions: in vivo, 720 h
[19] = as §3, with “0.15” for “0.3”, “DSS-challenge cotreated with 20 mg/kg berberine” for “DSS-challenge”; type: organism-based; conditions: in vivo, 720 h
Mus musculus [20] = experiment: Antiinflammatory activity against DSS-induced C57BL/6 mouse model of subchronic relapsing colitis assessed as reduction in TNFalpha mRNA level at 0.3 mg/kg, po administered once daily for 14 days starting from day 5 post DSS-challenge by RT-qPCR analysis; type: functional, organism-based
Mus musculus [21] = experiment: Antiinflammatory activity against DSS-induced C57BL/6 mouse model of subchronic relapsing colitis assessed as reduction in S1PR1 mRNA level at 0.3 mg/kg, po administered once daily for 14 days starting from day 5 post DSS-challenge by RT-qPCR analysis; type: functional, organism-based
Mus musculus [22] = experiment: Antiinflammatory activity against DSS-induced C57BL/6 mouse model of subchronic relapsing colitis assessed as reduction in IL17 mRNA level at 0.15 mg/kg, po administered once daily for 14 days starting from day 5 post DSS-challenge cotreated with 20 mg/kg berberine by RT-qPCR analysis; type: functional, organism-based
Mus musculus [23] = experiment: Antiinflammatory activity against DSS-induced C57BL/6 mouse model of subchronic relapsing colitis assessed as reduction in TNFalpha mRNA level at 0.15 mg/kg, po administered once daily for 14 days starting from day 5 post DSS-challenge cotreated with 20 mg/kg berberine by RT-qPCR analysis; type: functional, organism-based
Mus musculus [24] = experiment: Effect on total S1PR1 expression in DSS-induced C57BL/6 mouse model of subchronic relapsing colitis at 0.15 mg/kg, po administered once daily for 14 days starting from day 5 post DSS-challenge cotreated with 20 mg/kg berberine by Western blot analysis; type: ADME, organism-based; conditions: in vivo, 336 h
THP-1 [25] = experiment: Antiinflammatory activity in human THP1 cells assessed as reduction in LPS-induced IL6 mRNA level at 1 uM incubated for 1 hr followed by LPS challenge and measured after 4 to 6 hrs by q-PCR method; type: functional, cell-based
THP-1 [26] = experiment: Antiinflammatory activity in human THP1 cells assessed as reduction in LPS-induced TNFalpha mRNA level at 1 uM incubated for 1 hr followed by LPS challenge and measured after 4 to 6 hrs by q-PCR method; type: functional, cell-based

Compound: CCCCCCCCc1ccc(CCC(N)(CO)CO)cc1.Cl [FINGOLIMOD HYDROCHLORIDE]
- Activity (Mus musculus [1]): inactive
- Activity (Mus musculus [2]): inactive
- Activity (Mus musculus [3]): Active
- Activity (Mus musculus [4]): Active
- Activity (Mus musculus [5]): Active
- Activity (Mus musculus [6]): Active
- Activity (Mus musculus [7]): Active
- Activity (Mus musculus [8]): Active
- Activity (Mus musculus [9]): inactive
- Activity (Mus musculus [10]): Active
- Activity (Mus musculus [11]): Active
- Activity (Mus musculus [12]): Active
- Activity (Mus musculus [13]): Active
- Activity (Mus musculus [14]): Active
- Activity [15]: Non-Toxic
- Activity [16]: Non-Toxic
- Activity [17]: Non-Toxic
- Activity [18]: Non-Toxic
- Activity [19]: Non-Toxic
- Activity (Mus musculus [20]): Active
- Activity (Mus musculus [21]): Active
- Activity (Mus musculus [22]): Active
- Activity (Mus musculus [23]): Active
- Activity (Mus musculus [24]): Non-Toxic
- Activity (THP-1 [25]): Active
- Activity (THP-1 [26]): Active
